Data set [1] deals with DMBA-induced mammary tumor. In words: DMBA-induced rat mammary tumor model. The following applies: 1.0 mg/kg every 2 days; for Mammary tumor growth in DMBA-induced rats: tumor volumes over 21 days. The data set is classed as in vivo, female Sprague-Dawley rats.
Data set [2] concerns T47D human breast cancer cells. The data set can be described thus: Estrogenic and antiestrogenic activity in T47D cells (proliferation, alone or with 1 nM E2). It is filed as cell-based. The conditions noted are these: in combination with 1 nM E2. The source says:
In a separate study, it was also shown that the same compounds and other C-substituted DIMs were also antiestrogenic in T47D cells, and these include the C-p-phenol and C-p-anisole compounds in which R1═CH3 (methyl) (i.e., NMe-CPh-OHDIM and NMe-CPh-MeODIM, respectively) (FIG. 3).

The target in a further data set is T1, Ah receptor (Rattus norvegicus, UniProt P41738).
T1 sequence (P41738 10-853): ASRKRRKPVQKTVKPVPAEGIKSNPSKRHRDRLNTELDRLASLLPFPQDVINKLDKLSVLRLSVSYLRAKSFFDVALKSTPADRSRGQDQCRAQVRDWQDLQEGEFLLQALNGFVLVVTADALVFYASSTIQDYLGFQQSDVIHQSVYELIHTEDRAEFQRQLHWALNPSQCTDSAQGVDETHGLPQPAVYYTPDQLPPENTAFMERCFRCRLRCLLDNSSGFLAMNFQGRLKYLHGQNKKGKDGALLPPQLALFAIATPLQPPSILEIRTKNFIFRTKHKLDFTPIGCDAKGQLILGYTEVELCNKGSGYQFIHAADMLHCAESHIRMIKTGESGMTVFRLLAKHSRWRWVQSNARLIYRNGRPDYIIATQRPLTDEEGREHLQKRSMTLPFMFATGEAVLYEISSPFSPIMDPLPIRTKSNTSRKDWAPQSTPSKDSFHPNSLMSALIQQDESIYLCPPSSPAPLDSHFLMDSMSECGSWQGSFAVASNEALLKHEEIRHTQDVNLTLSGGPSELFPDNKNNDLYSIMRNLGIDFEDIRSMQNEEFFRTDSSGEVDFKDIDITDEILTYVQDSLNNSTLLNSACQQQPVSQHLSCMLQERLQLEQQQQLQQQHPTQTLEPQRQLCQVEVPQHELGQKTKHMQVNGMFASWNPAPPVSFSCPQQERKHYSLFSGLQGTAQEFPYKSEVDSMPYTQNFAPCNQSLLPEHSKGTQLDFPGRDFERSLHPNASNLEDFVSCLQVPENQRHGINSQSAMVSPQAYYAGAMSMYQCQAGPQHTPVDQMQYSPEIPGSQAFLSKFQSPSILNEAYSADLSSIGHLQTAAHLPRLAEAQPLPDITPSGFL
In words: Ah receptor competitive binding.

Data set [3] deals with MCF-7 human breast cancer cells. In words: Proliferation of MCF-7 breast cancer cells, alone or with 1 nM E2. The data set is classed as cell-based. The following applies: for E2-induced MCF-7 cell proliferation: co-treated with 1 nM E2; for Growth of MCF-7 cells, compound alone: up to 10 μM.
In data set [4] the test system is J82 human bladder cancer cell line. The data set can be described thus: Cell proliferation of J82 bladder cancer cells. The data set is classed as cell-based. The conditions noted are these: 0.1-10 μM, cell growth over 4-10 days. How it is done:
(§1) Initial studies used TCCSUP and J82 human bladder cancer cell lines that were maintained in RPMI culture media supplemented with 10% fetal bovine serum. Cell proliferation studies were carried out in multi-well plates, and compounds (in DMSO, 0.1% vol./vol.) were added and cell growth was determined over a period of 4 10 days. The growth inhibitory properties of DIM and related analogs were determined using the following prototypical compounds: DIM, 5,5′-dimethylDIM (5-Me-DIM), 2,2′-dimethylDIM (2-Me-DIM), and 5,5′-dichloroDIM (5-Cl-DIM) at concentrations from 0.1 10 μM.
as §1, with “Initial studies on the possible protective role for DIM compounds in bladder cancer used TCCSUP” for “Initial studies used TCCSUP”

Data set [5] relates to TCCSUP human bladder cancer cell line. The data set can be described thus: Cell proliferation of TCCSUP bladder cancer cells. The data set is classed as cell-based. The conditions noted are these: for Proliferation of TCCSUP human bladder cancer cells: 0.1-10 μM, cell growth over 4-10 days; for Lowest concentration at which TCCSUP cells were inhibited: lowest concentration tested. The procedure:
as §1
as §1, with “Initial studies on the possible protective role for DIM compounds in bladder cancer used TCCSUP” for “Initial studies used TCCSUP”

Data set [6] in a line: Body/organ weights, EROD and histopathology in the DMBA-induced rat study. The data set is classed as in vivo, female Sprague-Dawley rats. The following applies: 1.0 mg/kg every 2 days.
The subject of data set [7] is mitogen-activated protein kinase (MAPKK). In words: MAPKK-induced pSRE reporter activity in MCF-7 cells. The following applies: 1 or 5 μM, MCF-7 cells transfected with pMAPKK and pSRE. The data set is classed as cell-based. The text has this: Therefore, we have been investigating the inhibitory effects of DIMs on kinase activities and our initial studies have examined inhibition of mitogen-activated protein kinase (MAPKK) which regulates expression of multiple genes involved in cell proliferation. MCF-7 cells are transfected with a constitutively active MAPKK expression plasmid (pMAPKK), and induction of activity is monitored through activation of the construct pSRE which contains a MAPKK-inducible serum response element (SRE) from the cfos protooncogene (Duan et al., “Estrogen receptor-mediated activation of the serum response element in MCF-7 cells through MAPK-dependent phosphorylation of Elk-1” J. Biol. Chem. 276:11590 11598, 2001).

Data set [8] deals with HT-29 human colon cancer cells. The data set can be described thus: Cell proliferation and apoptosis of HT-29 colon cancer cells. The data set is classed as cell-based. The procedure:
Studies with HT-29 human colon cancer cells also indicate that DIM and related analogs protect against colon cancer. HT-29 cells were grown in DMEM and serum and treated with 25 μM DIM and 4,4′-dichloroDIM. After 72 hr, there was a 73 and 92% decrease in cell proliferation, respectively, and these antiproliferative effects could be observed with cell concentrations as low as 10 μM.
Preliminary studies with HT-29 human colon cancer cells also indicate that DIM and related analogs protect against colon cancer. HT-29 cells were grown in DMEM and serum and treated with 25 μM DIM and 4,4′-dichloroDIM. After 72 hours, there was a 73 and 92% decrease in cell proliferation, respectively, and these antiproliferative effects could be observed with concentrations as low as 10 μM.

pIC50: −log10 of the molar value. “Also recorded” adds a separate entry of the source. Like-named read-outs stand apart in the source and are kept apart here. Marks after values point to notes of the source that are not given here.

Experimental findings from US8389563B2, “C-substituted diindolylmethane compositions and methods for the treatment of multiple cancers” (The Texas A&M University System, priority 2000, dated 2013) are described below.

One may read the pIC50 as −log10 of the IC50, conventionally taken in molar units.

In the case of `Cn1cc(C(c2ccccc2)c2cn(C)c3ccccc23)c2ccccc21` [NMe-C-PhDIM], the “Mammary tumor growth in DMBA-induced rats” value (“Mammary tumor growth” below) in data set [1] was “Illustrates inhibition of DMBA-induced mammary tumor growth in female Sprague-”.

For `CC(c1c[nH]c2ccccc12)c1c[nH]c2ccccc12` [C-methylDIM], the “Antiestrogenic activity in T47D cells” value in [2] is listed as “antiestrogenic”. In addition, on Ah receptor, the pIC50 is 7.96. Besides, in [3], the “E2-induced MCF-7 cell proliferation” value was “hormone-induced proliferative response was inhibited” and the “Growth of MCF-7 cells, compound alone” value was “did not induce breast cancer cell proliferation”. Moreover, in data set [3] (listed as C—CH3), the “E2-induced MCF-7 cell proliferation” value is “significant inhibition of E2-induced cell proliferation” and the “Growth of MCF-7 cells, compound alone” value was “do not affect growth”.

On to `Clc1ccc2[nH]cc(Cc3c[nH]c4ccc(Cl)cc34)c2c1` [5,5′-dichloroDIM, 5,5′-dichloro-diindolylmethane], for which the “Proliferation of J82 human bladder cancer cells” value in data set [4] was “significantly inhibited”. For the same compound, in data set [5], the “Proliferation of TCCSUP human bladder cancer cells” value is given as “significantly inhibited” and the “Lowest concentration at which TCCSUP cells were inhibited” value is 0.1 µM.

For the compound `c1ccc(C(c2c[nH]c3ccccc23)c2c[nH]c3ccccc23)cc1` [C-PhDIM], in data set [6], the “Changes in body/organ weights or tissue histopathology” value is given as “not accompanied by changes in body/organ weights or altered tissue histopathology”, the EROD stood at 309 ± 102 pmol/mg/min, the Heart is on record as 0.38 +/− 0.03 % body weight and the Kidney was 0.33 +/− 0.01 % body weight. Also, in data set [6], the Liver is recorded as 3.2 +/− 0.1 % body weight, the Spleen is 0.33 +/− 0.05 % body weight and the Uterus was 0.19 +/− 0.02 % body weight. Moreover, the “Changes in body/organ weights or tissue histopathology” value in data set [6] (listed as C-phenylDIM) is on record as “not accompanied by changes in body/organ weights on altered tissue histopathology”. Moreover, in [1], the Tumor volume is listed as 1025 +/− 245* mm3, the Tumor weight is 1.40 +/− 0.4* g and the “Mammary tumor growth” value is “potent inhibition of mammary tumor growth”. Moreover, the “Mammary tumor growth” value in [1] (listed as C-phenylDIM) is recorded as “potent inhibition of mammary tumor growth”. The “Mammary tumor growth” value in data set [1] (listed as C—PhDIM) is “Illustrates inhibition of DMBA-induced mammary tumor growth in female Sprague-”. For the same compound, the “Antiestrogenic activity in T47D cells” value in [2] is listed as “antiestrogenic”. This compound gave a pIC50 at Ah receptor of 7.01. Moreover, in data set [3] (listed as C-phenylDIM), the “E2-induced MCF-7 cell proliferation” value is “hormone-induced proliferative response was inhibited” and the “Growth of MCF-7 cells, compound alone” value is “did not induce breast cancer cell proliferation”. Moreover, in [3] (listed as C—C6H5), the “E2-induced MCF-7 cell proliferation” value is “significant inhibition of E2-induced cell proliferation” and the “Growth of MCF-7 cells, compound alone” value is “do not affect growth”.

Turning to `COc1ccc(C(c2cn(C)c3ccccc23)c2cn(C)c3ccccc23)cc1` [NMe-C-Ph-MeODIM], in [1], the “Mammary tumor growth” value was “Illustrates inhibition of DMBA-induced mammary tumor growth in female Sprague-”. The “Antiestrogenic activity in T47D cells” value in data set [2] was “antiestrogenic”.

Take `Cc1ccc2[nH]cc(Cc3c[nH]c4ccc(C)cc34)c2c1` [5,5′-dimethylDIM, 5,5′-dimethyl-diindolylmethane]: the “Proliferation of J82 human bladder cancer cells” value in data set [4] is “significantly inhibited”. Moreover, in data set [5], the “Proliferation of TCCSUP human bladder cancer cells” value was “significantly inhibited” and the “Lowest concentration at which TCCSUP cells were inhibited” value is 0.1 µM. Also, in [7], the “MAPKK-induced (pSRE) activity” value is reported as “inhibited MAPKK-induced activity”.

Take `Cc1ccc2c(Cc3c[nH]c4cc(C)ccc34)c[nH]c2c1` [6,6′-dimethlyDIM]: the “MAPKK-induced (pSRE) activity” value in data set [7] was “inhibited MAPKK-induced activity”.

For the compound `Cc1[nH]c2ccccc2c1Cc1c(C)[nH]c2ccccc12` [2,2′-dimethylDIM, 2,2′-dimethyl-diindolylmethane], the “Proliferation of J82 human bladder cancer cells” value in data set [4] is “significantly inhibited”. For the same compound, in data set [5], the “Proliferation of TCCSUP human bladder cancer cells” value is “significantly inhibited” and the “Lowest concentration at which TCCSUP cells were inhibited” value turned out to be 0.1 µM.

As to `Cn1cc(C(c2ccc(O)cc2)c2cn(C)c3ccccc23)c2ccccc21` [NMe-C-PhOHDIM], the “Mammary tumor growth” value in data set [1] is reported as “Illustrates inhibition of DMBA-induced mammary tumor growth in female Sprague-”. The “Antiestrogenic activity in T47D cells” value in [2] is reported as “antiestrogenic”.

Turning to `Cn1cc(C(c2ccc(C(F)(F)F)cc2)c2cn(C)c3ccccc23)c2ccccc21` [NMe-C-Ph-CF3DIM], the “Mammary tumor growth” value in data set [1] is reported as “Illustrates inhibition of DMBA-induced mammary tumor growth in female Sprague-”.

Consider `FC(F)(F)c1ccc(C(c2c[nH]c3ccccc23)c2c[nH]c3ccccc23)cc1` [C—Ph—CF3DIM], for which the “Mammary tumor growth” value in data set [1] is “Illustrates inhibition of DMBA-induced mammary tumor growth in female and C—Ph—CF3DIM”.

`Cn1cc(C(c2ccc(Cl)cc2)c2cn(C)c3ccccc23)c2ccccc21`: the pIC50 on Ah receptor is 9.26.

On to `Clc1cccc2[nH]cc(Cc3c[nH]c4cccc(Cl)c34)c12` [4,4′-dichloroDIM], for which, in [8], the “Lowest concentration at which antiproliferative effects could be observed in HT-29 cells” value was 10 µM and the “Programmed cell death accompanying growth inhibition in HT-29 cells” value is on record as “programmed cell death, or apoptosis; also recorded: programmed cell death or apoptosis”. Also, the “Decrease in HT-29 cell proliferation” value in data set [8] (25 μM, after 72 hr) is recorded as 92%.

Regarding `Cc1ccc(C(c2cn(C)c3ccccc23)c2cn(C)c3ccccc23)cc1` [NMe-C-PhMeDIM], the “Mammary tumor growth” value in data set [1] is listed as “Illustrates inhibition of DMBA-induced mammary tumor growth in female Sprague-”.

As to `Cn1cc(C(c2ccc(-c3ccccc3)cc2)c2cn(C)c3ccccc23)c2ccccc21` [NMe-C-BiphDIM], the “Mammary tumor growth” value in data set [1] was “Illustrates inhibition of DMBA-induced mammary tumor growth in female Sprague-”. For the same compound, the pIC50 on Ah receptor (read-out: IC50 competitive binding values, Ah receptor) is 8.74.
